Results reported in patent publication US7429585B2, “Phenyl-piperazine methanone derivatives, substituted by heterocyclic groups” (Hoffmann-La Roche, priority 2004, dated 2008).

Biological target: T1, mGlyT-1b (Mus musculus, UniProt P28571)
T1 construct: host or cells: Flp-in-CHO
T1 sequence (P28571 1-651 isoform P28571-2): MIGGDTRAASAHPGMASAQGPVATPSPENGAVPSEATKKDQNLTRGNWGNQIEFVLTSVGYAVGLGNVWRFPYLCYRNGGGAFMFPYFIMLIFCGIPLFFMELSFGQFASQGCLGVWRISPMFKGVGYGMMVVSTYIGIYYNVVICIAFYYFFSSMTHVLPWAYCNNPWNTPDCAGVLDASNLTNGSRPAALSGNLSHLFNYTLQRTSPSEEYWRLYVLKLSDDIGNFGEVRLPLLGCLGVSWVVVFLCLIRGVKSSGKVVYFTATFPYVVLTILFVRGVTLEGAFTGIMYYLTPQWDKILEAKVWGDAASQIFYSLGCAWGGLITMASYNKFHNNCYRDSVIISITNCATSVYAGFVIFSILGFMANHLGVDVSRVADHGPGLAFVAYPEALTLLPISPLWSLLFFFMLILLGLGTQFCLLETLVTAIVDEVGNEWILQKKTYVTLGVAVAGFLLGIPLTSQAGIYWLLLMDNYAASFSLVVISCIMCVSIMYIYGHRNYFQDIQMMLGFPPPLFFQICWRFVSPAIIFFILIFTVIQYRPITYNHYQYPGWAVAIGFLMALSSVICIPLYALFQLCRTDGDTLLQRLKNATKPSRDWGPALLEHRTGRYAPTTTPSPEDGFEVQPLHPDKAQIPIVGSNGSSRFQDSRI
Experiment: Glycine uptake inhibition assay (mGlyT-1b)
Format: cell-based
Conditions: inhibition of [3H]-glycine uptake in Flp-in-CHO cells transfected with mGlyT-1b cDNA
Experimental: DMEM complete medium: Nutrient mixture F-12 (Gibco Life-technologies), fetal bovine serum (FBS) 5%, (Gibco life technologies), Penicillin/Streptomycin 1% (Gibco life technologies), Hygromycin 0.6 mg/ml (Gibco life technologies), Glutamine 1 mM Gibco life technologies)
Uptake buffer (UB): 150 mM NaCl, 10 mM Hepes-Tris, pH 7.4, 1 mM CaCl2, 2.5 mM KCl, 2.5 mM MgSO4, 10 mM (+) D-glucose. Flp-in™-CHO (Invitrogen Cat n° R758-07)cells stably transfected with mGlyT1b cDNA.
Glycine Uptake Inhibition Assay (mGlyT-1b)
On day 1 mammalian cells, (Flp-in™-CHO), transfected with mGlyT-1b cDNA, were plated at the density of 40,000 cells/well in complex F-12 medium, without hygromycin in 96-well culture plates. On day 2, the medium was aspirated and the cells were washed twice with uptake buffer (UB). The cells were then incubated for 20 min at 22° C. with either (i) no potential competitor, (ii) 10 mM non-radioactive glycine, (iii) a concentration of a potential inhibitor. A range of concentrations of the potential inhibitor was used to generate data for calculating the concentration of inhibitor resulting in 50% of the effect (e.g. IC50, the concentration of the competitor inhibiting glycine uptake of 50%). A solution was then immediately added containing [^3H]-glycine 60 nM (11-16 Ci/mmol) and 25 μM non-radioactive glycine. The plates were incubated with gentle shaking and the reaction was stopped by aspiration of the mixture and washing (three times) with ice-cold UB. The cells were lysed with scintillation liquid, shaken 3 hours and the radioactivity in the cells was counted using a scintillation counter.

| Structure (SMILES) | IC50 [nM] |
| --- | --- |
| O=C(c1cc([N+](=O)[O-])ccc1N1CCOCC1)N1CCN(c2nc3ccc(Cl)cc3s2)CC1 [Example 1.1, [4-(6-Chloro-benzothiazol-2-yl)-piperazin-1-yl]-(2-morpholin-4-yl-5-nitro-phenyl) -methanone] | 271 |
| CC(C)Oc1ccc(S(C)(=O)=O)cc1C(=O)N1CCN(c2nc3ccc(Cl)cc3s2)CC1 [Example 1.2, [4-(6-Chloro-benzothiazol-2-yl)-piperazin-1-yl]-(2-isopropoxy-5-methanesulfonyl-phenyl)-methanone] | 398 |
| CS(=O)(=O)c1ccc(OC2CCCC2)c(C(=O)N2CCN(c3nc4ccccc4o3)CC2)c1 [Example 1.4, (4-Benzoxazol-2-yl-piperazin-1-yl)-(2-cyclopentyloxy-5-methanesulfonyl-phenyl)-methanone] | 97 |
| CC(C)COc1ccc(S(C)(=O)=O)cc1C(=O)N1CCN(c2nc3ccccc3o2)CC1 [Example 1.5, (4-Benzoxazol-2-yl-piperazin-1-yl)-(2-isobutoxy-5-methanesulfonyl-phenyl)-methanone] | 144 |
| CC(C)Oc1ccc(S(C)(=O)=O)cc1C(=O)N1CCN(c2nc3ccc([N+](=O)[O-])cc3s2)CC1 [Example 1.9, (2-Isopropoxy-5-methanesulfonyl-phenyl)-[4-(6-nitro-benzothiazol-2-yl)-piperazin-1-yl]-methanone] | 206 |
| COc1cccc2sc(N3CCN(C(=O)c4cc(S(C)(=O)=O)ccc4OC(C)C)CC3)nc12 [Example 1.11, (2-Isopropoxy-5-methanesulfonyl-phenyl)-[4-(4-methoxy-benzothiazol-2-yl)-piperazin-1-yl]-methanone] | 148 |
| CC(C)Oc1ccc(S(C)(=O)=O)cc1C(=O)N1CCN(c2nc3c(O)cccc3s2)CC1 [Example 1.13, [4-(4-Hydroxy-benzothiazol-2-yl)-piperazin-1-yl]-(2-isopropoxy-5-methanesulfonyl-phenyl)-methanone] | 158 |
| CC(C)Oc1ccc(S(C)(=O)=O)cc1C(=O)N1CCN(c2nc3cc(Cl)ccc3s2)CC1 [Example 1.14, [4-(5-Chloro-benzothiazol-2-yl)-piperazin-1-yl]-(2-isopropoxy-5-methanesulfonyl-phenyl)-methanone] | 218 |
| CCOc1ccc2nc(N3CCN(C(=O)c4cc(S(C)(=O)=O)ccc4OC(C)C)CC3)sc2c1 [Example 1.15, [4-(6-Ethoxy-benzothiazol-2-yl)-piperazin-1-yl]-(2-isopropoxy-5-methanesulfonyl-phenyl)-methanone] | 339 |
| Cc1nc2cc(N3CCN(C(=O)c4cc(S(C)(=O)=O)ccc4OCC(C)C)CC3)ccc2s1 [Example 1.17, (2-Isobutoxy-5-methanesulfonyl-phenyl)-[4-(2-methyl-benzothiazol-5-yl)-piperazin-1-yl]-methanone] | 440 |
| CC(C)COc1ccc(S(C)(=O)=O)cc1C(=O)N1CCN(c2ccc3ccccc3n2)CC1 [Example 1.19, (2-Isobutoxy-5-methanesulfonyl-phenyl)-(4-quinolin-2-yl-piperazin-1-yl)-methanone] | 78 |
| CS(=O)(=O)c1ccc(OC2CCCC2)c(C(=O)N2CCN(c3ccc4cc(Cl)ccc4n3)CC2)c1 [Example 1.22, [4-(6-Chloro-quinolin-2-yl)-piperazin-1-yl]-(2-cyclopentyloxy-5-methanesulfonyl-phenyl)-methanone] | 399 |
| CC(C)COc1ccc(S(C)(=O)=O)cc1C(=O)N1CCN(c2cnc3ccccc3n2)CC1 [Example 1.23, (2-Isobutoxy-5-methanesulfonyl-phenyl)-(4-quinoxalin-2-yl-piperazin-1-yl)-methanone] | 167 |
| CC(C)Oc1ccc(S(C)(=O)=O)cc1C(=O)N1CCN(c2cnc3ccccc3n2)CC1 [Example 1.24, (2-Isopropoxy-5-methanesulfonyl-phenyl)-(4-quinoxalin-2-yl-piperazin-1-yl)-methanone] | 287 |
| CC(C)COc1ccc(S(C)(=O)=O)cc1C(=O)N1CCN(c2cnc3ccccc3c2)CC1 [Example 1.27, (2-Isobutoxy-5-methanesulfonyl-phenyl)-(4-quinolin-3-yl-piperazin-1-yl)-methanone] | 82 |
| CS(=O)(=O)c1ccc(OCC2CC2)c(C(=O)N2CCN(c3nc4ccc(Cl)cc4s3)CC2)c1 [Example 1.39, [4-(6-Chloro-benzothiazol-2-yl)-piperazin-1-yl]-(2-cyclopropylmethoxy-5-methanesulfonyl-phenyl)-methanone] | 230 |

The remaining molecules from weak to strong by IC50, led by results:

| IC50 [nM] | Structure (SMILES) |
| --- | --- |
| 500 | CC(C)Oc1ccc(S(C)(=O)=O)cc1C(=O)N1CCN(c2nsc3ccccc23)CC1 [Example 1.29, (4-Benzo [d]isothiazol-3-yl-piperazin-1-yl)-(2-isopropoxy-5-methanesulfonyl-phenyl) -methanone] |
| 467 | O=C(c1cc([N+](=O)[O-])ccc1N1CCOCC1)N1CCN(c2nsc3ccccc23)CC1 [Example 1.31, (4-Benzo[d]isothiazol-3-yl-piperazin-1-yl)-(2-morpholin-4-yl-5-nitro-phenyl) -methanone] |
| 375 | CC(C)Oc1ccc(S(C)(=O)=O)cc1C(=O)N1CCN(c2nc3c([N+](=O)[O-])cccc3s2)CC1 [Example 1.12, (2-Isopropoxy-5-methanesulfonyl-phenyl)-[4-(4-nitro-benzothiazol-2-yl)-piperazin-1-yl]-methanone] |
| 174 | COc1ccc2nc(N3CCN(C(=O)c4cc(S(C)(=O)=O)ccc4OC(C)C)CC3)sc2c1 [Example 1.8, (2-Isopropoxy-5-methanesulfonyl-phenyl)-[4-(6-methoxy-benzothiazol-2-yl)-piperazin-1-yl]-methanone] |
| 149 | CS(=O)(=O)c1ccc(OC2CCCC2)c(C(=O)N2CCN(c3cnc4ccccc4c3)CC2)c1 [Example 1.28, (2-Cyclopentyloxy-5-methanesulfonyl-phenyl)-(4-quinolin-3-yl-piperazin-1-yl)-methanone] |
| 67 | CS(=O)(=O)c1ccc(OC2CCCC2)c(C(=O)N2CCN(c3cnc4ccccc4n3)CC2)c1 [Example 1.25, (2-Cyclopentyloxy-5-methanesulfonyl-phenyl)-(4-quinoxalin-2-yl-piperazin-1-yl)-methanone] |
| 55 | C[C@H](Oc1ccc(S(C)(=O)=O)cc1C(=O)N1CCN(c2nsc3ccccc23)CC1)C(F)(F)F [Example 1.33, (4-Benzo[d]isothiazol-3-yl-piperazin-1-yl)-[5-methanesulfonyl-2-((S)-2,2,2-trifluoro-1-methyl-ethoxy)-phenyl]-methanone] |
| 39 | C[C@H](Oc1ccc(S(C)(=O)=O)cc1C(=O)N1CCN(c2nc3ccc(Cl)cc3s2)CC1)C(F)(F)F [Example 1.40, [4-(6-Chloro-benzothiazol-2-yl)-piperazin-1-yl]-[5-methanesulfonyl-2-((S)-2,2,2-trifluoro-1methyl-ethoxy)-phenyl]-methanone] |
